Patent publication US20220213099A1, “PRODRUG COMPOUNDS” (BRISTOL-MYERS SQUIBB COMPANY, priority 2019, published 2022)
Converted amounts (≈) assume the structure as drawn. Counter-ions that a name gives are not always drawn. Like-named read-outs stand apart in the source and are kept apart here.

How the values were obtained:
[1] = Solubility evaluation in aqueous buffer; type: physicochemical; conditions: for solubility: aqueous buffer, 25 °C, thermodynamic from solid, about 24 hours equilibration
Protocol: The solid powder of an individual prodrug was equilibrated in aqueous buffers of pH 1, 4 and 6.5 at 25° C. for about 24 hours. After equilibration, the excess solid was separated by filtration using 0.45 μm membrane filter and the filtrate was collected in suitable glass vial. The filtrate was diluted appropriately using respective buffers/diluent and analyzed by a reversed phase LC method with UV detection.

[2] = Stability evaluation in aqueous buffer; type: physicochemical; conditions: aqueous buffer, 37° C., about 50 μg/mL, about 15% v/v acetonitrile
Protocol: The stability study of an individual prodrug was conducted with about 50 μg/mL solutions in aqueous buffers of pH 1 (0.1 M HCl), 4 (acetate buffer) and 6.5 (phosphate buffer) at 37° C. for 24 hours. About 15% v/v acetonitrile was used in these pH buffers as a co-solvent to obtain clear solutions of prodrugs. The sample analysis was carried out using a generic reversed phase liquid chromatographic (LC) method with UV detection. The area percent (AP) loss of the prodrug peak was quantified as a function of time. The appearance of parent peak was identified from the chromatographic retention time. The half-life (t1/2, h) of the prodrug was calculated by using a pseudo-first order equation from a AP loss vs time plot.

[3] = pH 1, simulated gastric fluid, aqueous buffer pH 1, 25° C., read-out: Solubility (mg/mL) at 25° C. pH 1
[4] = pH 4, aqueous buffer, aqueous buffer pH 4, 25° C., read-out: Solubility (mg/mL) at 25° C. pH 4
[5] = pH 6.5, aqueous buffer, aqueous buffer pH 6.5, 25° C., read-out: Solubility (mg/mL) at 25° C. pH 6.5
[6] = pH 1, pH 1 (0.1 M HCl), read-out: Stability (t1/2, h) at 37° C. pH 1 (converted)
[7] = pH 4, pH 4 (acetate buffer), read-out: Stability (t1/2, h) at 37° C. pH 4 (converted)
[8] = pH 6.5, pH 6.5 (phosphate buffer), read-out: Stability (t1/2, h) at 37° C. pH 6.5 (converted)

Row | SMILES | solubility [1, 3] [mg/mL] | solubility [1, 4] [mg/mL] | solubility [1, 5] [mg/mL] | half-life [2, 6] [h] | half-life [2, 7] [h] | half-life [2, 8] [h] | pH dependence of aqueous solubility ([1]; pH of 1 versus pH of 4 or pH of 6)
1 | Cc1c(-c2c(C(C)C)c3cc(C4CCN(CC(N)=O)CC4)ccc3n2C(=O)CCCOP(=O)(O)O)cn2ncnc2c1C [Example 10, 4-(5-(1-(2-Amino-2-oxoethyl)piperidin-4-yl)-2-(7,8-dimethyl-[1,2,4]triazolo[1,5-a]pyridin-6-yl)-3-isopropyl-1H-indol-1-yl)-4-oxobutyl dihydrogen phosphate] | 0.43 | 0.1 | 0.12 | 347 | > 500 | > 500 | –
2 | Cc1c(-c2c(C(C)C)c3cc(C4CCN(CC(N)=O)CC4)ccc3n2C(=O)OCOP(=O)(O)O)cn2ncnc2c1C [Example 16, (Phosphonooxy)methyl 5-(1-(2-amino-2-oxoethyl)piperidin-4-yl)-2-(7,8-dimethyl-[1,2,4]triazolo[1,5-a]pyridin-6-yl)-3-isopropyl-1H-indole-1-carboxylate] | – | – | – | 80 | 7.5 | 0.1 | –
3 | Cc1c(-c2c(C(C)C)c3cc(C4CCN(CC(N)=O)CC4)ccc3n2C(=O)OC[C@@H]2CCCN2)cn2ncnc2c1C [Example 3, (S)-Pyrrolidin-2-ylmethyl 5-(1-(2-amino-2-oxoethyl)piperidin-4-yl)-2-(7,8-dimethyl-[1,2,4]triazolo[1,5-a]pyridin-6-yl)-3-isopropyl-1H-indole-1-carboxylate] | > 2.43 | > 2.68 | > 2.44 | > 500 | > 500 | 99 | –
4 | Cc1c(-c2c(C(C)C)c3cc(C4CCN(CC(N)=O)CC4)ccc3n2C(=O)OC[C@@H]2CCCN2C(=O)OCOP(=O)(O)O)cn2ncnc2c1C [Example 4, (S)-(1-(((Phosphonooxy)methoxy)carbonyl)pyrrolidin-2-yl)methyl 5-(1-(2-amino-2-oxoethyl)piperidin-4-yl)-2-(7,8-dimethyl-[1,2,4]triazolo[1,5-a]pyridin-6-yl)-3-isopropyl-1H-indole-1-carboxylate] | > 1.64 | 0.91 (≈ 1250 µM) | 0.66 (≈ 909 µM) | 231 | 257 | 231 | –
5 | Cc1c(-c2c(C(C)C)c3cc(C4CCN(CC(N)=O)CC4)ccc3n2SC[C@H](N)C(=O)O)cn2ncnc2c1C [Example 11, S-(5-(1-(2-Amino-2-oxoethyl)piperidin-4-yl)-2-(7,8-dimethyl-[1,2,4]triazolo[1,5-a]pyridin-6-yl)-3-isopropyl-1H-indol-1-yl)-L-cysteine] | > 1.03 | 0.007 (≈ 12.4 µM) | > 1.02 | > 500 | > 500 | 154 | –
6 | Cc1c(-c2[nH]c3ccc(C4CCN(CC(N)=O)CC4)cc3c2C(C)C)cn2nc[n+](COC(=O)N(C)CCOP(=O)(O)O)c2c1C (single isomer, unassigned) [Example 21, 6-(5-(1-(2-amino-2-oxoethyl)piperidin-4-yl)-3-isopropyl-1H-indol-2-yl)-7,8-dimethyl-1-(((methyl(2-(phosphonooxy)ethyl)carbamoyl)oxy)methyl)-[1,2,4]triazolo[1,5-a]pyridin-1-ium trifluoroacetate] | > 1.75 | 0.25 | 0.55 | > 500 | > 500 | > 500 | –
7 | CNCC(=O)OCc1cccnc1N(C)C(=O)OC(C)[N+]1(CC(N)=O)CCC(c2ccc3[nH]c(-c4cn5ncnc5c(C)c4C)c(C(C)C)c3c2)CC1 (centres unmarked) [Example 14, 1-(2-Amino-2-oxoethyl)-4-(2-(7,8-dimethyl-[1,2,4]triazolo[1,5-a]pyridin-6-yl)-3-isopropyl-1H-indol-5-yl)-1-(1-((methyl(3-(((methylglycyl)oxy)methyl)pyridin-2-yl)carbamoyl)oxy)ethyl)piperidin-1-ium ditrifluoroacetate] | > 1.51 | > 0.98 | – | 179 | 85 | 1.6 | –
8 | CNCCN(C)C(=O)OC[N+]1(CC(N)=O)CCC(c2ccc3[nH]c(-c4cn5ncnc5c(C)c4C)c(C(C)C)c3c2)CC1 (centres unmarked) [Example 23, 1-(2-Amino-2-oxoethyl)-4-(2-(7,8-dimethyl-[1,2,4]triazolo[1,5-a]pyridin-6-yl)-3-isopropyl-1H-indol-5-yl)-1-(((methyl(2-(methylamino)ethyl)carbamoyl)oxy)methyl) piperidin-1-ium trifluoroacetate] | > 0.82 | > 0.85 | – | > 500 | 9.6 | 0.1 | –
9 | Cc1c(-c2c(C(C)C)c3cc(C4CCN(CC(N)=O)CC4)ccc3n2C(=O)OC[C@@H]2CCCCN2C(=O)OCOP(=O)(O)O)cn2ncnc2c1C [Example 2, (S)-(1-(((Phosphonooxy)methoxy)carbonyl)piperidin-2-yl)methyl 5-(1-(2-amino-2-oxoethyl)piperidin-4-yl)-2-(7,8-dimethyl-[1,2,4]triazolo[1,5-a]pyridin-6-yl)-3-isopropyl-1H-indole-1-carboxylate] | > 1.17 | 0.24 (≈ 324 µM) | 0.43 (≈ 581 µM) | 248 | 283 | 267 | –
10 | Cc1c(-c2c(C(C)C)c3cc(C4CCN(CC(N)=O)CC4)ccc3n2C(=O)CN(C)C(=O)OCOP(=O)(O)O)cn2ncnc2c1C [Example 19, (Phosphonooxy)methyl (2-(5-(1-(2-amino-2-oxoethyl)piperidin-4-yl)-2-(7,8-dimethyl-[1,2,4]triazolo[1,5-a]pyridin-6-yl)-3-isopropyl-1H-indol-1-yl)-2-oxoethyl)(methyl) carbamate] | > 1.09 | 0.7 (≈ 1050 µM) | > 1.01 | 157 | 207 | 65 | –
11 | Cc1c(-c2c(C(C)C)c3cc(C4CCN(CC(N)=O)CC4)ccc3n2C(=O)OC[C@@H]2CCCCN2)cn2ncnc2c1C [Example 1, (S)-Piperidin-2-ylmethyl 5-(1-(2-amino-2-oxoethyl)piperidin-4-yl)-2-(7,8-dimethyl-[1,2,4]triazolo[1,5-a]pyridin-6-yl)-3-isopropyl-1H-indole-1-carboxylate] | > 1.74 | > 1.28 | > 1.34 | > 500 | > 500 | 218 | –
12 | CCOC(=O)n1c(-c2cn3ncnc3c(C)c2C)c(C(C)C)c2cc(C3CCN(CC(N)=O)CC3)ccc21 [Example 24, Ethyl 5-(1-(2-amino-2-oxoethyl)piperidin-4-yl)-2-(7,8-dimethyl-[1,2,4]triazolo[1,5-a]pyridin-6-yl)-3-isopropyl-1H-indole-1-carboxylate] | > 1.39 | > 2.93 | 0.1 (≈ 194 µM) | > 500 | > 500 | > 500 | –
13 | CNCC(=O)OCc1cccnc1N(C)C(=O)OC[n+]1cnn2cc(-c3[nH]c4ccc(C5CCN(CC(N)=O)CC5)cc4c3C(C)C)c(C)c(C)c21 [Example 13, 6-(5-(1-(2-Amino-2-oxoethyl)piperidin-4-yl)-3-isopropyl-1H-indol-2-yl)-7,8-dimethyl-1-(((methyl(3-(((methylglycyl)oxy)methyl)pyridin-2-yl)carbamoyl)oxy)methyl)-[1,2,4]triazolo[1,5-a]pyridin-1-ium tritrifluoroacetate] | – | – | – | 459 | 99 | 2.5 | –
14 | Cc1c(-c2c(C(C)C)c3cc(C4CCN(CC(N)=O)CC4)ccc3n2P(=O)(O)O)cn2ncnc2c1C [Example 18, (5-(1-(2-Amino-2-oxoethyl)piperidin-4-yl)-2-(7,8-dimethyl-[1,2,4]triazolo[1,5-a]pyridin-6-yl)-3-isopropyl-1H-indol-1-yl)phosphonate] | – | – | – | 6.4 | 2.9 | 6.3 | –
15 | CNCC(=O)OCc1cccnc1N(C)C(=O)OC[N+]1(CC(N)=O)CCC(c2ccc3[nH]c(-c4cn5ncnc5c(C)c4C)c(C(C)C)c3c2)CC1 (centres unmarked) [Example 12, 1-(2-Amino-2-oxoethyl)-4-(2-(7,8-dimethyl-[1,2,4]triazolo[1,5-a]pyridin-6-yl)-3-isopropyl-1H-indol-5-yl)-1-(((methyl(3-(((methylglycyl)oxy)methyl)pyridin-2-yl)carbamoyl)oxy)methyl)piperidin-1-ium ditrifluoroacetate] | – | – | – | > 500 | 99 | 1.6 | –
16 | Cc1c(-c2[nH]c3ccc(C4CCN(CC(N)=O)CC4)cc3c2C(C)C)cn2ncnc2c1C [Compound A, 2-(4-(2-(7,8-dimethyl-[1,2,4]triazolo[1,5-a]pyridin-6-yl)-3-isopropyl-1H-indol-5-yl)piperidin-1-yl)acetamide, reference compound] | 1.56 (≈ 3510 µM) | 0.05 (≈ 112 µM) | < 0.01 | – | – | – | higher solubility at pH of 1 than at pH of 4 or pH of 6
